{"source": "patent US6358885B1", "about": "“Substituted phenylheterocyclic herbicides” (Mississippi State University, priority 1992, dated 2002)", "key": {"duck salad": {"tested_on": "duck salad", "test": "Test C flood test plant response rating 0 to 100", "assay_type": "in vivo, Heteranthera limosa", "details": "for Plant response rating Duck salad: flood test species listed under POSTEMERGENCE, 0 to 100 scale", "how_it_was_run": "(§1)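 Compounds in non-phytotoxic solvent went onto sandy loam before emergence (seeded one day earlier) or onto plants at the one-to-four leaf stage. Duck salad was treated via flood water (~2.5 cm, maintained) over silt loam.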"}, "crabgrass [1]": {"tested_on": "crabgrass", "test": "Test B preemergence/postemergence greenhouse plant response rating 0 to 10", "assay_type": "in vivo, Digitaria spp.", "details": "0 to 10 scale", "how_it_was_run": "(§2)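 Test chemicals, dissolved in a non-phytotoxic solvent, were applied to soil at planting and, at the same time, over foliage of seedlings at the one to four leaf stage.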"}, "barley": {"tested_on": "barley", "test": "Test B preemergence/postemergence greenhouse plant response rating 0 to 10", "assay_type": "in vivo, Hordeum vulgare", "details": "0 to 10 scale", "how_it_was_run": "as §2"}, "rice": {"tested_on": "rice", "test": "Test C flood test plant response rating 0 to 100", "assay_type": "in vivo, Oryza sativa", "details": "for Plant response rating Rice Japonica: flood test species listed under POSTEMERGENCE, 0 to 100 scale", "how_it_was_run": "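Compounds in non-phytotoxic solvent applied preemergence to sandy loam one day after planting, postemergence at the 1–4 leaf stage, or to ~2.5 cm floodwater over silt loam.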"}, "wild oat": {"tested_on": "wild oat", "test": "Test C preemergence/postemergence greenhouse plant response rating 0 to 100", "assay_type": "in vivo, Avena fatua", "details": "POSTEMERGENCE; for Plant response rating, Wild oat: 0 to 100 scale", "how_it_was_run": "as §1"}, "giant foxtail [2]": {"tested_on": "giant foxtail", "test": "Test B preemergence/postemergence greenhouse plant response rating 0 to 10", "assay_type": "in vivo, Setaria faberii", "details": "0 to 10 scale", "how_it_was_run": "as §2"}, "barnyardgrass": {"tested_on": "barnyardgrass", "test": "Test B preemergence/postemergence greenhouse plant response rating 0 to 10", "assay_type": "in vivo, Echinochloa crus-galli", "details": "0 to 10 scale", "how_it_was_run": "as §2"}, "crabgrass [3]": {"tested_on": "crabgrass", "test": "Test C preemergence/postemergence greenhouse plant response rating 0 to 100", "assay_type": "in vivo, Digitaria sanguinalis", "details": "POSTEMERGENCE; for Plant response rating, Crabgrass: 0 to 100 scale", "how_it_was_run": "as §1"}, "downy brome": {"tested_on": "downy brome", "test": "Test C preemergence/postemergence greenhouse plant response rating 0 to 100", "assay_type": "in vivo, Bromus tectorum", "details": "POSTEMERGENCE; for Plant response rating Downy Brome: 0 to 100 scale", "how_it_was_run": "as §1"}, "wheat": {"tested_on": "wheat", "test": "Test B preemergence/postemergence greenhouse plant response rating 0 to 10", "assay_type": "in vivo, Triticum aestivum", "details": "0 to 10 scale", "how_it_was_run": "as §2"}, "rape": {"tested_on": "rape", "test": "Test B preemergence/postemergence greenhouse plant response rating 0 to 10", "assay_type": "in vivo, Brassica napus", "details": "0 to 10 scale", "how_it_was_run": "as §2"}, "sorghum": {"tested_on": "sorghum", "test": "Test B preemergence/postemergence greenhouse plant response rating 0 to 10", "assay_type": "in vivo, Sorghum bicolor", "details": "0 to 10 scale", "how_it_was_run": "as §2"}, "chickweed [4]": {"tested_on": "chickweed", "test": "Test B preemergence/postemergence greenhouse plant response rating 0 to 10", "assay_type": "in vivo, Stellaria media", "details": "0 to 10 scale", "how_it_was_run": "as §2"}, "corn": {"tested_on": "corn", "test": "Test B preemergence/postemergence greenhouse plant response rating 0 to 10", "assay_type": "in vivo, Zea mays", "details": "0 to 10 scale", "how_it_was_run": "as §2"}, "wild buckwheat": {"tested_on": "wild buckwheat", "test": "Test C preemergence/postemergence greenhouse plant response rating 0 to 100", "assay_type": "in vivo, Polygonum convolvulus", "details": "POSTEMERGENCE; for Plant response rating, Wild buckwheat: 0 to 100 scale", "how_it_was_run": "as §1"}, "bedstraw": {"tested_on": "bedstraw", "test": "Test C preemergence/postemergence greenhouse plant response rating 0 to 100", "assay_type": "in vivo, Galium aparine", "details": "POSTEMERGENCE; for Plant response rating, Bedstraw: 0 to 100 scale", "how_it_was_run": "as §1"}, "chickweed [5]": {"tested_on": "chickweed", "test": "Test C preemergence/postemergence greenhouse plant response rating 0 to 100", "assay_type": "in vivo, Stellaria media", "details": "POSTEMERGENCE; for Plant response rating, Chickweed: 0 to 100 scale", "how_it_was_run": "as §1"}, "giant foxtail [6]": {"tested_on": "giant foxtail", "test": "Test C preemergence/postemergence greenhouse plant response rating 0 to 100", "assay_type": "in vivo, Setaria faberii", "details": "POSTEMERGENCE; for Plant response rating, Giant foxtail: 0 to 100 scale", "how_it_was_run": "as §1"}, "[7]": {"details": "POSTEMERGENCE section, flood test, Rate 4 g/ha"}, "[8]": {"details": "Rate 16 g/ha, under POSTEMERGENCE head (flood test species)"}}, "data": [{"smiles": "Fc1cc(Cl)c(OCCCl)cc1-c1nn2c(c1Cl)CCCC2", "note": "[Compound 49]", "values": [{"measurement": "Plant response rating (0 to 100), Duck salad", "setting": "duck salad; [7]", "result": 20}, {"measurement": "Plant response rating (0 to 100), Duck salad", "setting": "duck salad; [8]", "result": 70}, {"measurement": "Plant response rating Duck salad", "setting": "duck salad; 62 g/ha", "result": 90}, {"measurement": "Plant response rating Duck salad", "setting": "duck salad; 250 g/ha", "result": 95}, {"measurement": "Plant response rating, Crabgrass", "setting": "crabgrass [1]; POSTEMERGENCE, Rate 50 g/ha", "result": 4}, {"measurement": "Plant response rating, Crabgrass", "setting": "crabgrass [1]; PREEMERGENCE, Rate 50 g/ha", "result": 0}, {"measurement": "Plant response rating, Crabgrass", "setting": "crabgrass [1]; Rate 200 g/ha, PREEMERGENCE", "result": 5}, {"measurement": "Plant response rating, Barley", "setting": "barley; POSTEMERGENCE, Rate 50 g/ha", "result": 4}, {"measurement": "Plant response rating, Barley", "setting": "barley; POSTEMERGENCE, Rate 200 g/ha", "result": 5}, {"measurement": "Plant response rating, Barley", "setting": "barley; PREEMERGENCE, Rate 50 g/ha", "result": 0}, {"measurement": "Plant response rating, Barley", "setting": "barley; Rate 200 g/ha, PREEMERGENCE", "result": 0}, {"measurement": "Plant response rating (0 to 100), Rice Japonica", "setting": "rice; [7]", "result": 10}, {"measurement": "Plant response rating (0 to 100), Rice Japonica", "setting": "rice; [8]", "result": 30}, {"measurement": "Plant response rating Rice Japonica", "setting": "rice; 62 g/ha", "result": 50}, {"measurement": "Plant response rating Rice Japonica", "setting": "rice; 250 g/ha", "result": 60}, {"measurement": "Plant response rating, Wild oat", "setting": "wild oat; 62 g/ha", "result": 50}, {"measurement": "Plant response rating, Wild oat", "setting": "wild oat; 250 g/ha", "result": 60}, {"measurement": "Plant response rating (0 to 100), Wild oat", "setting": "wild oat; Rate 4 g/ha", "result": 20}, {"measurement": "Plant response rating (0 to 100), Wild oat", "setting": "wild oat; Rate 16 g/ha", "result": 40}, {"measurement": "Plant response rating, Giant foxtail", "setting": "giant foxtail [2]; POSTEMERGENCE, Rate 50 g/ha", "result": 4}, {"measurement": "Plant response rating, Giant foxtail", "setting": "giant foxtail [2]; PREEMERGENCE, Rate 50 g/ha", "result": 4}, {"measurement": "Plant response rating, Giant foxtail", "setting": "giant foxtail [2]; Rate 200 g/ha, POSTEMERGENCE", "result": 6}, {"measurement": "Plant response rating, Giant foxtail", "setting": "giant foxtail [2]; Rate 200 g/ha, PREEMERGENCE", "result": 10}, {"measurement": "Plant response rating, Barnyardgrass", "setting": "barnyardgrass; POSTEMERGENCE, Rate 50 g/ha", "result": 3}, {"measurement": "Plant response rating, Barnyardgrass", "setting": "barnyardgrass; POSTEMERGENCE, Rate 200 g/ha", "result": 7}, {"measurement": "Plant response rating, Barnyardgrass", "setting": "barnyardgrass; PREEMERGENCE, Rate 50 g/ha", "result": 0}, {"measurement": "Plant response rating, Barnyardgrass", "setting": "barnyardgrass; Rate 200 g/ha, PREEMERGENCE", "result": 5}, {"measurement": "Plant response rating, Crabgrass", "setting": "crabgrass [3]; 62 g/ha", "result": 20}, {"measurement": "Plant response rating, Crabgrass", "setting": "crabgrass [3]; 250 g/ha", "result": 40}, {"measurement": "Plant response rating (0 to 100), Crabgrass", "setting": "crabgrass [3]; Rate 4 g/ha", "result": 10}, {"measurement": "Plant response rating (0 to 100), Crabgrass", "setting": "crabgrass [3]; Rate 16 g/ha", "result": 10}, {"measurement": "Plant response rating Downy Brome", "setting": "downy brome; 62 g/ha", "result": 60}, {"measurement": "Plant response rating Downy Brome", "setting": "downy brome; 250 g/ha", "result": 70}, {"measurement": "Plant response rating (0 to 100), Downy Brome", "setting": "downy brome; Rate 4 g/ha", "result": 30}, {"measurement": "Plant response rating (0 to 100), Downy Brome", "setting": "downy brome; Rate 16 g/ha", "result": 40}, {"measurement": "Plant response rating, Wheat", "setting": "wheat; POSTEMERGENCE, Rate 50 g/ha", "result": 5}, {"measurement": "Plant response rating, Wheat", "setting": "wheat; PREEMERGENCE, Rate 50 g/ha", "result": 0}, {"measurement": "Plant response rating, Wheat", "setting": "wheat; Rate 200 g/ha, POSTEMERGENCE", "result": 4}, {"measurement": "Plant response rating, Wheat", "setting": "wheat; Rate 200 g/ha, PREEMERGENCE", "result": 2}, {"measurement": "Plant response rating, Rape", "setting": "rape; POSTEMERGENCE, Rate 50 g/ha", "result": 7}, {"measurement": "Plant response rating, Rape", "setting": "rape; PREEMERGENCE, Rate 50 g/ha", "result": 1}, {"measurement": "Plant response rating, Rape", "setting": "rape; Rate 200 g/ha, POSTEMERGENCE", "result": 6}, {"measurement": "Plant response rating, Rape", "setting": "rape; Rate 200 g/ha, PREEMERGENCE", "result": 6}, {"measurement": "Plant response rating, Sorghum", "setting": "sorghum; POSTEMERGENCE, Rate 50 g/ha", "result": 3}, {"measurement": "Plant response rating, Sorghum", "setting": "sorghum; PREEMERGENCE, Rate 50 g/ha", "result": 0}, {"measurement": "Plant response rating, Sorghum", "setting": "sorghum; Rate 200 g/ha, POSTEMERGENCE", "result": 5}, {"measurement": "Plant response rating, Sorghum", "setting": "sorghum; Rate 200 g/ha, PREEMERGENCE", "result": 1}, {"measurement": "Plant response rating, Chickweed", "setting": "chickweed [4]; POSTEMERGENCE, Rate 50 g/ha", "result": 7}, {"measurement": "Plant response rating, Chickweed", "setting": "chickweed [4]; POSTEMERGENCE, Rate 200 g/ha", "result": 9}, {"measurement": "Plant response rating, Chickweed", "setting": "chickweed [4]; PREEMERGENCE, Rate 50 g/ha", "result": 0}, {"measurement": "Plant response rating, Chickweed", "setting": "chickweed [4]; Rate 200 g/ha, PREEMERGENCE", "result": 8}, {"measurement": "Plant response rating, Corn", "setting": "corn; POSTEMERGENCE, Rate 50 g/ha", "result": 3}, {"measurement": "Plant response rating, Corn", "setting": "corn; POSTEMERGENCE, Rate 200 g/ha", "result": 4}, {"measurement": "Plant response rating, Corn", "setting": "corn; PREEMERGENCE, Rate 50 g/ha", "result": 0}, {"measurement": "Plant response rating, Corn", "setting": "corn; Rate 200 g/ha, PREEMERGENCE", "result": 2}, {"measurement": "Plant response rating, Wild buckwheat", "setting": "wild buckwheat; 62 g/ha", "result": 100}, {"measurement": "Plant response rating, Wild buckwheat", "setting": "wild buckwheat; 250 g/ha", "result": 100}, {"measurement": "Plant response rating (0 to 100), Wild buckwheat", "setting": "wild buckwheat; Rate 4 g/ha", "result": 100}, {"measurement": "Plant response rating (0 to 100), Wild buckwheat", "setting": "wild buckwheat; Rate 16 g/ha", "result": 100}, {"measurement": "Plant response rating, Bedstraw", "setting": "bedstraw; 62 g/ha", "result": 70}, {"measurement": "Plant response rating, Bedstraw", "setting": "bedstraw; 250 g/ha", "result": 100}, {"measurement": "Plant response rating (0 to 100), Bedstraw", "setting": "bedstraw; Rate 4 g/ha", "result": 20}, {"measurement": "Plant response rating (0 to 100), Bedstraw", "setting": "bedstraw; Rate 16 g/ha", "result": 50}, {"measurement": "Plant response rating, Chickweed", "setting": "chickweed [5]; 62 g/ha", "result": 50}, {"measurement": "Plant response rating, Chickweed", "setting": "chickweed [5]; 250 g/ha", "result": 80}, {"measurement": "Plant response rating (0 to 100), Chickweed", "setting": "chickweed [5]; Rate 4 g/ha", "result": 20}, {"measurement": "Plant response rating (0 to 100), Chickweed", "setting": "chickweed [5]; Rate 16 g/ha", "result": 50}, {"measurement": "Plant response rating, Giant foxtail", "setting": "giant foxtail [6]; 62 g/ha", "result": 50}, {"measurement": "Plant response rating, Giant foxtail", "setting": "giant foxtail [6]; 250 g/ha", "result": 60}, {"measurement": "Plant response rating (0 to 100), Giant foxtail", "setting": "giant foxtail [6]; Rate 4 g/ha", "result": 30}, {"measurement": "Plant response rating (0 to 100), Giant foxtail", "setting": "giant foxtail [6]; Rate 16 g/ha", "result": 40}]}]}
